From patent US20250155354A1, “METHOD AND DEVICE FOR HIGH THROUGHPUT CELL DEFORMABILITY MEASUREMENTS” (THE REGENTS OF THE UNIVERSITY OF CALIFORNIA, priority 2010, published 2025)

Test system: cervical carcinoma cells (HeLa)
Assay: Cell deformability measurement of drug-treated HeLa cells in microfluidic extensional flow (cytoskeletal disruption)
Format: cell-based
Description: Still referring to FIG. 4, post-processing (operation 450) is conducted on the data 80 to determine cell size, cell deformation, and cell circularity. The cells 50 passing through the system 10 may either be of a known phenotype or an unknown phenotype as illustrated by operation 400. As part of the post processing operation 450, the size of the cell 50 prior to entering the extensional region 40 is determined. The cell diameter (d) is determined as the average of the minimum cell diameters at […] to horizontal prior to entering the extensional region 40 (approximately four (4) frames prior to entering extension region 40). By taking the size measurements from the vertical axis, noise due to blur attributed to high velocities in the horizontal direction is reduced. As the cell 50 enters the extension region 40 and changes trajectory the deformability and circularity parameters are measured. In the frame where the largest deformation is calculated, the corresponding circularity is recorded as well. The deformability parameter is determined by the ratio a/b of the maximum diameter (a) in the vertical direction at 90°±30° to the minimum diameter (b) in the horizontal direction at 0°±30°. The circularity parameter is calculated by (4πA/L^2) wherein A is the area of the observed cell and L is the perimeter of the cell. […]

Compound | cell deformability (a/b) versus untreated HeLa control (HeLa cells incubated in 0.1 μM Latrunculin A for 4 hours prior to deformability assay) | cell deformability (a/b) versus untreated HeLa control (HeLa cells incubated in 2 μM nocodazole for 1 hour prior to deformability assay)
C/C1=C/C(=O)O[C@@H]2C[C@@H](CC[C@H](C)/C=C\C=C\CC1)O[C@@](O)([C@@H]1CSC(=O)N1)C2 [Latrunculin, Latrunculin A] | significantly more deformable | –
COC(=O)Nc1nc2ccc(C(=O)c3cccs3)cc2[nH]1 [Nocodazole] | – | more rigid than untreated cells
